Measurements as given in US11999727B2 (Tango Therapeutics, Inc., priority 2020, dated 2024).
Where two headings read alike, the source gives them in different places.

Experiments:
PRMT5 [1] = target: T1, PRMT5 (Homo sapiens, UniProt O14744); assay: PRMT5 biochemical IC50 assay with no cofactor; conditions: PRMT5, no cofactor; read-out: No Cofactor/ rel IC50
T1 construct: purchased Viva (custom protein)
Description: Table 1 indicates IC50 values (μM) against PRMT5 for exemplary compounds in the presence of SAM as cofactor, with no cofactor, and with MTA as cofactor, respectively (columns 4-6). […] Ki values can be calculated from the IC50 values as described in the Examples section. As detailed in the Examples section, for the assay performed in the presence of SAM, IC50=Ki×1.5 (Ki=IC50/1.5).

[2] = system: HAP1 MTAP-deleted cell line; assay: Viability assay, MTAP-deleted cell line; assay type: cell-based; conditions: HAP1 MTAP-deleted cell line, read-out: HAP1 MTAP deleted viability
Description: Table 1 additionally indicates IC50 values in a viability assay for the MTAP-deleted cell line (column 10), indicating the effect of treatment with compound on cell survival.

PRMT5 [3] = target: T1, PRMT5; assay: PRMT5 biochemical IC50 assay with SAM as cofactor; conditions: PRMT5, SAM as cofactor; read-out: SAM IC50
[4] = system: HAP1 MTAP-intact cell line; assay: SDMA in-cell western assay, HAP1 MTAP-intact; assay type: cell-based; conditions: HAP1 MTAP-intact, read-out: MTAP HAP1 intact IC50
In short: (§1)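 MTAP-null vs endogenous-MTAP HAP1 isogenic cells; in-cell western SDMA readout; IC50 per line.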

PRMT5 [5] = target: T1, PRMT5; assay: PRMT5 biochemical IC50 assay with MTA as cofactor; conditions: PRMT5, MTA as cofactor; read-out: MTA IC50
[6] = system: HAP1 MTAP-deleted cell line; assay: SDMA in-cell western assay, HAP1 MTAP-deleted; assay type: cell-based; conditions: for IC50: HAP1 MTAP-deleted, read-out: HAP 1 MTAP deleted IC50; for MTAP intact/deleted ratio: IC50 ratio HAP1 MTAP-intact / HAP1 MTAP-deleted
In short: as §1

[7] = Homo sapiens, HAP1, SDMA in-cell western

T1 sequence (O14744 whole entry): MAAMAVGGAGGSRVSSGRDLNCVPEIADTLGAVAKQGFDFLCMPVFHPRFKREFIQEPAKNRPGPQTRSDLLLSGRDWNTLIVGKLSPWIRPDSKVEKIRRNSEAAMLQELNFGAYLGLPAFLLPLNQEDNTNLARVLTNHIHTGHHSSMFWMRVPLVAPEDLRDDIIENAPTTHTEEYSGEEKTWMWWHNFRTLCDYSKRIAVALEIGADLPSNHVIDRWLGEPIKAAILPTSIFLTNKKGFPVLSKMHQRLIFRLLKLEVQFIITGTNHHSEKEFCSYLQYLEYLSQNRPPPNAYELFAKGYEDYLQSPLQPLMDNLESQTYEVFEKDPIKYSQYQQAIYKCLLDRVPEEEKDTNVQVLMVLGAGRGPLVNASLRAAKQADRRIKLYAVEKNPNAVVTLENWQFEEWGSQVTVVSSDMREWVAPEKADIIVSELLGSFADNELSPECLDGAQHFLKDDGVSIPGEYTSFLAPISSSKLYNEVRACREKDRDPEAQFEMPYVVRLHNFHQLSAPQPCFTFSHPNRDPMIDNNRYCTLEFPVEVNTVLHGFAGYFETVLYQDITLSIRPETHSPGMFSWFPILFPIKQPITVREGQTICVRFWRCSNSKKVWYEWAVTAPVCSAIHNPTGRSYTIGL
T1 sequence (Q9BQA1 whole entry partner): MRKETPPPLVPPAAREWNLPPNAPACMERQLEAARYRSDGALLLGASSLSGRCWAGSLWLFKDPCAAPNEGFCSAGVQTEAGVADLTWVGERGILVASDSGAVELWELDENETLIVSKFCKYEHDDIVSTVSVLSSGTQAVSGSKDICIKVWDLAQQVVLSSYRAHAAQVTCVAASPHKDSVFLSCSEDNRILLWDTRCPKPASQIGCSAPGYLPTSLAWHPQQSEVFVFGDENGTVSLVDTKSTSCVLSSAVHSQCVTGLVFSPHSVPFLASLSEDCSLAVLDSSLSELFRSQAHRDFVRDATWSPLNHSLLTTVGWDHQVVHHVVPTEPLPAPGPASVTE

SMILES | IC50 (PRMT5 [1]) [µM] | IC50 ([2]; Homo sapiens, HAP1, viability) [µM] | IC50 (PRMT5 [3]) [µM] | IC50 [4, 7] [µM] | IC50 (PRMT5 [5]) [µM] | IC50 [6, 7] [µM] | MTAP intact/deleted ratio ([6]; SDMA in-cell western) | IC50 ([2]; viability) [µM] | IC50 ([4]; SDMA in-cell western) [µM] | IC50 ([6]; SDMA in-cell western) [µM]
Cc1cc(NC(=O)C(=O)N2C[C@@H](C)CC[C@@H]2c2ccc(CCN(C)C)cc2)cnc1N (single isomer, unassigned) [Compound 1322] | > 0.5 | > 10 | > 0.5 | > 1 | > 0.5 | > 1 |  |  |  | 
Cc1cc(NC(=O)C(=O)N2C[C@H](C)[C@H](OC(F)(F)F)C[C@H]2c2ccc(F)cc2)cnc1N (single isomer, unassigned) [Compound 1323] | > 0.5 | > 10 | > 0.5 | > 1 | > 0.5 | > 1 |  |  |  | 
Cc1cc(NC(=O)C(=O)N2C[C@@H](C)[C@H](OC(C)C)C[C@@H]2c2ccccc2)cnc1N (single isomer, unassigned) [Compound 1327] | > 0.5 | 1 to 10 | > 0.5 | > 1 | > 0.5 | > 1 |  |  |  | 
Cc1cc(NC(=O)C(=O)N2C[C@@H](C)CC[C@@H]2c2ccc(N3CCN(C)CC3)cc2)cnc1N (single isomer, unassigned) [Compound 1328] | < 0.05 | < 1 | 0.05 to 0.5 | < 0.1 | < 0.05 | < 0.1 | B (an IC50 ratio greater than or equal to 3 fold but lower than 10 fold) |  |  | 
C[C@H]1CC[C@H](c2ccc3sc(CCN(C)C)nc3c2)N(C(=O)C(=O)Nc2cnc(N)c(C3CC3)c2)C1 (single isomer, unassigned) [Compound 1331] | > 0.5 | 1 to 10 | > 0.5 | > 1 | > 0.5 | 0.1 to 1 | A (an IC50 ratio greater than or equal to 10 fold) |  |  | 
COCCc1nc2cc([C@@H]3CC[C@@H](C)CN3C(=O)C(=O)Nc3cnc(N)c(C4CC4)c3)ccc2s1 (single isomer, unassigned) [Compound 1332] | 0.05 to 0.5 | < 1 | 0.05 to 0.5 | 0.1 to 1 | < 0.05 | < 0.1 |  |  |  | 
C[C@@H]1CC[C@@H](c2ccc3cncn3c2)N(C(=O)C(=O)Nc2cnc(N)c(C3CC3)c2)C1 (single isomer, unassigned) [Compound 1336, N-(6-amino-5-cyclopropylpyridin-3-yl)-2-(2-(imidazo[1,5-a]pyridin-6-yl)-5-methylpiperidin-1-yl)-2-oxoacetamide] | > 0.5 | 1 to 10 | > 0.5 | > 1 | > 0.5 | 0.1 to 1 |  |  |  | 
C[C@H]1CC[C@H](c2ccc3sc(C4CCN(C)CC4)nc3c2)N(C(=O)C(=O)Nc2cnc(OC(F)(F)F)c(C(N)=O)c2)C1 (single isomer, unassigned) [Compound 1337] | < 0.05 | < 1 | < 0.05 | < 0.1 | < 0.05 | < 0.1 | B (an IC50 ratio greater than or equal to 3 fold but lower than 10 fold) |  |  | 
CCc1cc(NC(=O)C(=O)N2C[C@@H](C)CC[C@@H]2c2ccc(N3CCOC4(CN(C)C4)C3)cc2)cnc1N (single isomer, unassigned) [Compound 1339] | < 0.05 | < 1 | 0.05 to 0.5 | 0.1 to 1 | < 0.05 | < 0.1 | A (an IC50 ratio greater than or equal to 10 fold) |  |  | 
COc1ncc(NC(=O)C(=O)N2C[C@@H](C)[C@@H](OC)C[C@@H]2c2ccc3scnc3c2)cc1C(N)=O (single isomer, unassigned) [Compound 1344] | > 0.5 | 1 to 10 | > 0.5 | > 1 | > 0.5 | 0.1 to 1 |  |  |  | 
Cc1cc(NC(=O)C(=O)N2C[C@@H](C)CC[C@@H]2c2cc(F)c3[nH]ncc3c2)cnc1N (single isomer, unassigned) [Compound 1350] | < 0.05 | < 1 | 0.05 to 0.5 | 0.1 to 1 | < 0.05 | < 0.1 | A (an IC50 ratio greater than or equal to 10 fold) |  |  | 
Cc1cc(NC(=O)C(=O)N2C[C@H](C)[C@H](OC(C)C)C[C@H]2c2ccccc2)cnc1N (single isomer, unassigned) [Compound 1351] | < 0.05 | < 1 | < 0.05 | < 0.1 | < 0.05 | < 0.1 | B (an IC50 ratio greater than or equal to 3 fold but lower than 10 fold) |  |  | 
CCc1cc(NC(=O)C(=O)N2C[C@@H](C)CC[C@@H]2c2cccc([C@H]3CCCN(C)C3)c2)cnc1N (single isomer, unassigned) [Compound 1353] | < 0.05 |  | 0.05 to 0.5 |  | < 0.05 |  | A (an IC50 ratio greater than or equal to 10 fold) | < 1 | 0.1 to 1 | < 0.1
CCc1cc(NC(=O)C(=O)N2C[C@H](C)C(F)(F)C[C@H]2c2ccc3[nH]ncc3c2)cnc1N (single isomer, unassigned) [Compound 1357, N-(6-amino-5-ethylpyridin-3-yl)-2-(4,4-difluoro-2-(1H-indazol-5-yl)-5-methylpiperidin-1-yl)-2-oxoacetamide] | 0.05 to 0.5 | < 1 | 0.05 to 0.5 | < 0.1 | < 0.05 | < 0.1 | A (an IC50 ratio greater than or equal to 10 fold) |  |  | 
Cc1cc(NC(=O)C(=O)N2C[C@H](C)CC[C@H]2c2ccc(CCN(C)C)cc2)cnc1N (single isomer, unassigned) [Compound 1358] | < 0.05 | < 1 | 0.05 to 0.5 | < 0.1 | < 0.05 | < 0.1 | A (an IC50 ratio greater than or equal to 10 fold) |  |  | 
CCc1cc(NC(=O)C(=O)N2C[C@@H](C)CC[C@@H]2c2ccc(N3CCN(CC)CC3)cc2)cnc1N (single isomer, unassigned) [Compound 1360] | > 0.5 | > 10 | > 0.5 | > 1 | > 0.5 | > 1 |  |  |  | 
C[C@@H]1CC[C@@H](c2ccc3[nH]ncc3c2)N(C(=O)C(=O)Nc2cnc(N)c(C3CC3)c2)C1 (single isomer, unassigned) [Compound 1361] | > 0.5 | > 10 | > 0.5 | > 1 | > 0.5 | > 1 |  |  |  | 
COc1ncc(NC(=O)C(=O)N2C[C@H](C)[C@H](OC)C[C@H]2c2ccc3scnc3c2)cc1C(N)=O (single isomer, unassigned) [Compound 1364] | < 0.05 | < 1 | 0.05 to 0.5 | 0.1 to 1 | < 0.05 | < 0.1 | A (an IC50 ratio greater than or equal to 10 fold) |  |  | 
CO[C@H]1C[C@H](c2ccc3scnc3c2)N(C(=O)C(=O)Nc2cnc(N)c(C3CC3)c2)C[C@H]1C (single isomer, unassigned) [Compound 1370] | < 0.05 | < 1 | 0.05 to 0.5 | < 0.1 | < 0.05 | < 0.1 | A (an IC50 ratio greater than or equal to 10 fold) |  |  | 
CCc1cc(NC(=O)C(=O)N2C[C@@H](C)CC[C@@H]2c2ccc(N3CCN(C)CC3)cc2)cnc1N (single isomer, unassigned) [Compound 1371] | < 0.05 | < 1 | 0.05 to 0.5 | 0.1 to 1 | < 0.05 | < 0.1 | A (an IC50 ratio greater than or equal to 10 fold) |  |  | 
CCc1cc(NC(=O)C(=O)N2C[C@H](C)CC[C@H]2c2ccc3c(cnn3CCN(C)C)c2)cnc1N (single isomer, unassigned) [Compound 1374] | < 0.05 | < 1 | 0.05 to 0.5 | 0.1 to 1 | < 0.05 | < 0.1 | A (an IC50 ratio greater than or equal to 10 fold) |  |  | 
CCc1cc(NC(=O)C(=O)N2C[C@H](C)CC[C@H]2c2ccc3sc(CCOC)nc3c2)cnc1N (single isomer, unassigned) [Compound 1375] | > 0.5 | > 10 | > 0.5 | > 1 | > 0.5 | > 1 |  |  |  | 
CCc1cc(NC(=O)C(=O)N2C[C@@H](C)CC[C@@H]2c2ccc3sc(CCOC)nc3c2)cnc1N (single isomer, unassigned) [Compound 1386] | < 0.05 | < 1 | 0.05 to 0.5 | 0.1 to 1 | < 0.05 | < 0.1 | A (an IC50 ratio greater than or equal to 10 fold) |  |  | 
